Experimental data published in paper PMC11353420, “Anti-Inflammatory, Cytotoxic, and Genotoxic Effects of Soybean Oligopeptides Conjugated with Mannose” (Foods, 2024).

Legend:
[1] = tested on: human peripheral blood mononuclear cells (PBMCs); experiment: SRB cytotoxicity assay, PBMCs; format: cell-based; details: up to 800 µg/mL
Text: (§1) As described by […] et al., human peripheral blood mononuclear cells (PBMCs) and red blood cells (RBCs) were isolated from human blood samples [41]. Human blood samples of healthy subjects obtained from Maharaj Hospital, Chiang Mai, Thailand, were anonymized and kept in a heparinized tube by the laboratory. RBCs were collected and used to determined hemolysis induction by a hemolysis assay. Ficoll-Hypaque solution was used to isolate PBMCs, as described in the manufacturer's instructions. A certificate of exemption by the Research Ethics Committee of the Faculty of Medicine, Chiang Mai University (No. EXEMPTION 8989/2022), was granted. Consent to participate was not applicable as all data were anonymized. All methods were carried out in accordance with relevant guidelines and regulations.

[2] = SRB cytotoxicity assay, PBMCs; format: cell-based, human; details: human, peripheral blood mononuclear cells (PBMCs); PBMCs, 800 µg/mL; read-out: % Cell Viability (n = 5)
Text: as §1

Drosophila melanogaster = experiment: Somatic mutation and recombination test (SMART, wing spot test); format: in vivo; design: key to Statistical diagnosis vs DI (negative control), Small Single (1–2 Cells) / Statistical diagnosis vs DI (negative control), Large Single (>2 Cells) / Statistical diagnosis vs DI (negative control), Twin / Statistical diagnosis vs DI (negative control), Total Spots: + = positive; − = negative; i = inconclusive; details: for Frequency of Mutant Spots per Individual (Number of Spots), Large Single (>2 Cells) / Frequency of Mutant Spots per Individual (Number of Spots), Small Single (1–2 Cells) / Frequency of Mutant Spots per Individual (Number of Spots), Total Spots / Frequency of Mutant Spots per Individual (Number of Spots), Twin: 40 wings
Method: In brief, two strains of fruit flies, including mwh/mwh and ORR; flr^3/In(3LR) TM3, ri p^p sep l(3)89Aa bx^34e e Bd^S, were mated. […] After hatching, forty round wings were collected and analyzed for mutant spots (single, large, and twin spots). The statistical analysis for the wing spot test was performed as previously described. The Drosophila study was approved by the Institute of Nutrition—Mahidol University Institutional Animal Care and Use Committee (INMU-IACUC) (COA. No. INMU-IACUC 2023/01).

Compound: OC[C@H]1OC(O)[C@@H](O)[C@@H](O)[C@@H]1O (stereo partly drawn) [Man, D-mannose]
- toxic effects to hPBMCs [1]: did not show any toxic effects
- viability at 48 h, 800 µg/mL [2]: 106 ± 13.3%
- Statistical diagnosis vs DI (negative control), Large Single (>2 Cells) (Drosophila melanogaster; 62.5 µg/mL): i
- Statistical diagnosis vs DI (negative control), Small Single (1–2 Cells) (Drosophila melanogaster; 62.5 µg/mL): −
- Statistical diagnosis vs DI (negative control), Twin (Drosophila melanogaster; 62.5 µg/mL): −
- Frequency of Mutant Spots per Individual (Number of Spots), Large Single (>2 Cells) (Drosophila melanogaster; 62.5 µg/mL): 0.03 (1)
- Frequency of Mutant Spots per Individual (Number of Spots), Small Single (1–2 Cells) (Drosophila melanogaster; 62.5 µg/mL): 0.40 (16)
- Frequency of Mutant Spots per Individual (Number of Spots), Total Spots (Drosophila melanogaster; 62.5 µg/mL): 0.43 (17)
- Frequency of Mutant Spots per Individual (Number of Spots), Twin (Drosophila melanogaster; 62.5 µg/mL): 0.00 (0)
- Statistical diagnosis vs DI (negative control), Large Single (>2 Cells) (Drosophila melanogaster; 125 µg/mL): i
- Statistical diagnosis vs DI (negative control), Small Single (1–2 Cells) (Drosophila melanogaster; 125 µg/mL): −
- Statistical diagnosis vs DI (negative control), Total Spots (Drosophila melanogaster; 125 µg/mL): −
- Statistical diagnosis vs DI (negative control), Twin (Drosophila melanogaster; 125 µg/mL): −
- Frequency of Mutant Spots per Individual (Number of Spots), Large Single (>2 Cells) (Drosophila melanogaster; 125 µg/mL): 0.03 (1)
- Frequency of Mutant Spots per Individual (Number of Spots), Small Single (1–2 Cells) (Drosophila melanogaster; 125 µg/mL): 0.50 (20)
- Frequency of Mutant Spots per Individual (Number of Spots), Total Spots (Drosophila melanogaster; 125 µg/mL): 0.53 (21)
- Frequency of Mutant Spots per Individual (Number of Spots), Twin (Drosophila melanogaster; 125 µg/mL): 0.00 (0)
- Statistical diagnosis vs DI (negative control), Large Single (>2 Cells) (Drosophila melanogaster; 250 µg/mL): i
- Statistical diagnosis vs DI (negative control), Small Single (1–2 Cells) (Drosophila melanogaster; 250 µg/mL): −
- Statistical diagnosis vs DI (negative control), Total Spots (Drosophila melanogaster; 250 µg/mL): −
- Statistical diagnosis vs DI (negative control), Twin (Drosophila melanogaster; 250 µg/mL): −
- Frequency of Mutant Spots per Individual (Number of Spots), Large Single (>2 Cells) (Drosophila melanogaster; 250 µg/mL): 0.03 (1)
- Frequency of Mutant Spots per Individual (Number of Spots), Small Single (1–2 Cells) (Drosophila melanogaster; 250 µg/mL): 0.43 (17)
- Frequency of Mutant Spots per Individual (Number of Spots), Total Spots (Drosophila melanogaster; 250 µg/mL): 0.45 (18)
- Frequency of Mutant Spots per Individual (Number of Spots), Twin (Drosophila melanogaster; 250 µg/mL): 0.00 (0)
- Statistical diagnosis vs DI (negative control), Large Single (>2 Cells) (Drosophila melanogaster; 500 µg/mL): i
- Statistical diagnosis vs DI (negative control), Small Single (1–2 Cells) (Drosophila melanogaster; 500 µg/mL): −
- Statistical diagnosis vs DI (negative control), Total Spots (Drosophila melanogaster; 500 µg/mL): −
- Statistical diagnosis vs DI (negative control), Twin (Drosophila melanogaster; 500 µg/mL): −
- Frequency of Mutant Spots per Individual (Number of Spots), Large Single (>2 Cells) (Drosophila melanogaster; 500 µg/mL): 0.03 (1)
- Frequency of Mutant Spots per Individual (Number of Spots), Small Single (1–2 Cells) (Drosophila melanogaster; 500 µg/mL): 0.25 (10)
- Frequency of Mutant Spots per Individual (Number of Spots), Total Spots (Drosophila melanogaster; 500 µg/mL): 0.28 (11)
- Frequency of Mutant Spots per Individual (Number of Spots), Twin (Drosophila melanogaster; 500 µg/mL): 0.00 (0)
- Statistical diagnosis vs DI (negative control), Large Single (>2 Cells) (Drosophila melanogaster; 1000 µg/mL): i
- Statistical diagnosis vs DI (negative control), Small Single (1–2 Cells) (Drosophila melanogaster; 1000 µg/mL): −
- Statistical diagnosis vs DI (negative control), Total Spots (Drosophila melanogaster; 1000 µg/mL): −
- Statistical diagnosis vs DI (negative control), Twin (Drosophila melanogaster; 1000 µg/mL): −
- Frequency of Mutant Spots per Individual (Number of Spots), Large Single (>2 Cells) (Drosophila melanogaster; 1000 µg/mL): 0.03 (1)
- Frequency of Mutant Spots per Individual (Number of Spots), Small Single (1–2 Cells) (Drosophila melanogaster; 1000 µg/mL): 0.25 (10)
- Frequency of Mutant Spots per Individual (Number of Spots), Total Spots (Drosophila melanogaster; 1000 µg/mL): 0.28 (11)
- Frequency of Mutant Spots per Individual (Number of Spots), Twin (Drosophila melanogaster; 1000 µg/mL): 0.00 (0)
- Statistical diagnosis vs DI (negative control), Large Single (>2 Cells) (Drosophila melanogaster; 2000 µg/mL): −
- Statistical diagnosis vs DI (negative control), Small Single (1–2 Cells) (Drosophila melanogaster; 2000 µg/mL): −
- Statistical diagnosis vs DI (negative control), Total Spots (Drosophila melanogaster; 2000 µg/mL): −
- Statistical diagnosis vs DI (negative control), Twin (Drosophila melanogaster; 2000 µg/mL): −
- Frequency of Mutant Spots per Individual (Number of Spots), Large Single (>2 Cells) (Drosophila melanogaster; 2000 µg/mL): 0.00 (0)
- Frequency of Mutant Spots per Individual (Number of Spots), Small Single (1–2 Cells) (Drosophila melanogaster; 2000 µg/mL): 0.23 (9)
- Frequency of Mutant Spots per Individual (Number of Spots), Total Spots (Drosophila melanogaster; 2000 µg/mL): 0.23 (9)
- Frequency of Mutant Spots per Individual (Number of Spots), Twin (Drosophila melanogaster; 2000 µg/mL): 0.00 (0)
- Statistical diagnosis vs DI (negative control), Large Single (>2 Cells) (Drosophila melanogaster; 5000 µg/mL): −
- Statistical diagnosis vs DI (negative control), Small Single (1–2 Cells) (Drosophila melanogaster; 5000 µg/mL): −
- Statistical diagnosis vs DI (negative control), Total Spots (Drosophila melanogaster; 5000 µg/mL): −
- Statistical diagnosis vs DI (negative control), Twin (Drosophila melanogaster; 5000 µg/mL): −
- Frequency of Mutant Spots per Individual (Number of Spots), Large Single (>2 Cells) (Drosophila melanogaster; 5000 µg/mL): 0.00 (0)
- Frequency of Mutant Spots per Individual (Number of Spots), Small Single (1–2 Cells) (Drosophila melanogaster; 5000 µg/mL): 0.18 (7)
- Frequency of Mutant Spots per Individual (Number of Spots), Total Spots (Drosophila melanogaster; 5000 µg/mL): 0.18 (7)
- Frequency of Mutant Spots per Individual (Number of Spots), Twin (Drosophila melanogaster; 5000 µg/mL): 0.00 (0)
- DNA mutations / genome safety (Drosophila melanogaster; all doses, up to 5000 µg/mL): did not trigger DNA mutations
